Structures can show the parent of a compound that is named as a salt.
How the values were obtained:
[1] = test system: substance P-induced scratching behavior; assay: Inhibitory effect on substance P-induced scratching behavior in mice (MicroAct automatic detection); format: in vivo, mouse; settings: substance P 250 nmol/site; for Number of scratching behavior (means ± standard error): i.p., counted for 15 minutes
Source text: Substance P-induced scratching behavior in mice which is an intractable pruritus model was induced by the method described in a known document (Togashi et al., European Journal of Pharmacology, 2002, Vol. 435, p. 259 and the like). Further, evaluation of the scratching behavior was objectively carried out by automatic detection using MicroAct (NeuroScience, Inc.) based on the method described in a known document (Hashimoto et al., Allergology International, 2004, Vol. 53, p. 349).
More particularly, at least five days before the evaluation of drug effect, neodymium magnets (diameter: 1 mm, length: 3 mm) coated with Parafilm were subcutaneously inserted into the insteps of both hind limbs of 5 to 7 week-old male ICR mouse (Japan SLC, Inc.) under isoflurane anesthesia. One or two days before the day of the evaluation of drug effect, the hair of the rostral part of the back of the mouse was shaved with a hair clipper under isoflurane anesthesia. At least one hour before the start of the measurement of the number of scratching behavior, each mouse (6 to 8 weeks old) was individually placed in a chamber for measurement (diameter: 11 cm, height: 18 cm) for acclimation. After the acclimation, substance P (5 mmol/L) or phosphate-buffered saline (hereinafter referred to as PBS) as a solvent thereof was intradermally administered (0.05 mL/site) into the rostral part of the back, and the measurement of the number of scratching behavior was started immediately after the administration. The number of scratching behavior was recorded by amplifying electric current induced by the movement of the magnets inserted in the hind limbs in a round coil surrounding the chamber for measurement. The measurement was carried out under unattended environment, and the evaluation of the drug effect was carried out by using the number of scratching behavior occurred for 15 minutes after the start of the measurement as an index.
A test compound or a solvent thereof was administered in an amount of 10 mL/kg 30 to 60 minutes before the start of the measurement of the number of scratching behavior. Varenicline tartrate (Tocris Bioscience) was dissolved in PBS and intraperitoneally administered in a dose of 1, 3 or 10 mg/kg 60 minutes before the start of the measurement of the number of scratching behavior. N-(1-azabicyclo[2.2.2]oct-3(R)-yl)-4-chlorobenzamide hydrochloride (PNU-282987) hydrate (Sigma-Aldrich) was dissolved in PBS and intraperitoneally administered in a dose of 0.3 or 1 mg/kg 45 minutes before the start of the measurement of the number of scratching behavior. The compound of Reference Example 1 was dissolved in PBS and intraperitoneally administered in a dose of 0.1 or 0.3 mg/kg 30 minutes before the start of the measurement of the number of scratching behavior. The compound of Reference Example 2 was dissolved in PBS and intraperitoneally administered in a dose of 1, 3, or 10 mg/kg 45 minutes before the start of the measurement of the number of scratching behavior. The compound of Reference Example 3 was dissolved in distilled water and orally administered in a dose of 1, 3, or 10 mg/kg 30 minutes before the start of the measurement of the number of scratching behavior. The compound of Reference Example 4 was dissolved in PBS and intraperitoneally administered in a dose of 1, 3, or 10 mg/kg 45 minutes before the start of the measurement of the number of scratching behavior. The compound of Reference Example 5 was dissolved in PBS and intraperitoneally administered in a dose of 1, 3, or 10 mg/kg 30 minutes before the start of the measurement of the number of scratching behavior. The compound of Reference Example 6 was dissolved in PBS and intraperitoneally administered in a dose of 1, 3, or 10 mg/kg, 30 minutes before the start of the measurement of the number of scratching behavior. […]

[2] = test system: substance P-induced scratching behavior; assay: Effect of nicotinic acetylcholine receptor antagonist (mecamylamine hydrochloride) on inhibition of substance P-induced scratching behavior by varenicline; format: in vivo, mouse; settings: varenicline tartrate 3 mg/kg + mecamylamine hydrochloride 3 mg/kg, i.p., 60 minutes before; substance P 250 nmol/site
Experimental: The induction and measurement of the number of substance P-induced scratching behavior were carried out by the same method as described in Example 1.
Varenicline tartrate (0.3 mg/mL, Tocris Bioscience), mecamylamine hydrochloride (0.3 mg/mL, Tocris Bioscience), a mixed solution of varenicline tartrate and mecamylamine hydrochloride (both 0.3 mg/mL), or PBS which was a solvent thereof, was intraperitoneally administered in an amount of 10 mL/kg 60 minutes before the start of the measurement of the number of scratching behavior.
With regard to statistical processing, Student's t-test was performed when variances were homogeneity by F-test, and Aspin-Welch test was performed when variances were heterogeneity. A level of significance was set to 5% (two-tailed).
The vertical axis indicates the number of scratching behavior occurred for 15 minutes (mean±standard error, n=5 to 8). […]

Q: For `c1cnc2cc3c(cc2n1)C1CNCC3C1` [Varenicline tartrate, 7,8,9,10-tetrahydro-6H-6,10-methanopyrazino[2,3-h][3]benzazepine, reference compound], which inhibition at 1 mg/kg ([1]; Mus musculus, ip, 1 mg/kg, read-out: Inhibition rate) is on record?
A: Its inhibition at 1 mg/kg is 15%.

Q: And the inhibition at 3 mg/kg ([1]; Mus musculus, ip, 3 mg/kg, read-out: Inhibition rate)?
A: Its inhibition at 3 mg/kg is 64%.

Q: And the inhibition at 10 mg/kg ([1]; Mus musculus, ip, 10 mg/kg, read-out: Inhibition rate)?
A: The inhibition at 10 mg/kg was 101%.

Q: And the “Number of scratching behavior (means ± standard error)” value (“Number … (means ± standard error)” below) ([1]; 1 mg/kg)?
A: The value was 103 ± 19.

Q: And the “Number … (means ± standard error)” value ([1]; 3 mg/kg)?
A: The value was 54 ± 7.

Q: And the “Number … (means ± standard error)” value ([1]; 10 mg/kg)?
A: The value was 17 ± 3.

Q: And the “Effect of inhibiting the substance P-induced scratching behavior when used in combination with mecamylamine hydrochloride” value [2]?
A: The value was “completely disappeared”.
